Assays:
A2780/CP tumor cells = assay: A2780/CP ovarian tumor xenograft model; assay type: in vivo, female athymic nude mice
Description: The compound tested, {[5-(3-fluorophenyl)-3-hydroxypyridine-2-carbonyl]-amino} acetic acid, was formulated in a 0.25% hydroxypropyl methyl cellulose/0.1% Tween™ 80 solution in reverse osmosis deionized water. The test compound was reconstituted at concentrations of 1.8 and 3.6 mg/ml as instructed on each vial to deliver doses of 18 and 36 mg/kg, respectively, at a […] dose volume. Solutions of the test compound were prepared weekly and stored at 4° C. protected from light. All formulations were removed from the refrigerator and stirred for 30 minutes before dosing, and continuously stirred during dosing.
The vehicle control was prepared by making a solution of 0.25% hydroxypropyl methyl cellulose/0.1% Tween™ 80 solution in reverse osmosis deionized water.
A2780/CP ovarian tumor cell line was received from Sigma-Aldrich (St. Louis, Mo.). Cultures were maintained in RPMI 1640 (Hyclone, Logan, Utah), supplemented with 10% fetal bovine serum, and housed in a 5% CO2 atmosphere. The cultures were expanded in tissue culture flasks at a 1:3 split ratio until a sufficient yield of cells was achieved.
Female athymic nude mice were supplied by Harlan (Indianapolis, Ind.). Mice were received at four to five weeks of age, 12-15 grams in weight, and were acclimated for seven days prior to handling. The mice were housed in microisolator cages and maintained under specific pathogen-free conditions. The mice were fed Tekland Global Diet™ 2920x irradiated laboratory animal diet (Harlan, Indianapolis, Ind.) and autoclaved water was freely available.
Sixty female mice were inoculated subcutaneously in the right flank with 0.1 ml of a 50% RPMI/50% Matrigel™ (BD Biosciences, Bedford, Mass.) mixture containing a suspension of A2780/CP tumor cells (approximately 1.0×10^7 cells/mouse).
Three days following inoculation, tumors were measured using calipers and tumor weight was calculated using the animal study management software. Thirty mice with tumor sizes of 80.4-170.6 mg were randomized into three groups often mice (Groups 1-3) by random equilibration. Body weights were recorded when the mice were randomized and were taken twice per week thereafter in conjunction with tumor measurements.
Animals were treated until the study endpoint. Group I received only vehicle (control). Group II was given doses of 1.8 mg/mL {[5-(3-fluorophenyl)-3-hydroxypyridine-2-carbonyl]-amino} acetic acid while Group III was given doses of 3.6 mg/mL {[5-(3-fluorophenyl)-3-hydroxypyridine-2-carbonyl]-amino} acetic acid. All doses were given via oral administration (PO). The administered volume of each dose was approximately 1 mL/100 g body weight of animal.
Tumor mass (mg) was determined using the formula:
where “a” is the largest diameter and “b” is the smallest diameter. Measurements were made using calipers. The mean tumor size when study began was 100-125 mg. On day one of the study, animals were randomly assigned to the three groups described above.
Tumors were collected from Groups 1-3 of the main study when individual tumors reached a tumor weight of ≧2000 mg by using the procedure above. Tumor size measurements and animal body weight were taken twice weekly.

[1] = test system: tumor growth in HIF-2αflox/flox/LysMcre and LysMcre mice; assay: Tumor growth in mice with myeloid-specific deletion of HIF-2α vs LysMcre control mice; assay type: in vivo; details: FIG. 15
Text: HIF-2α^flox/flox mice (originally developed by Dr. Celeste Simon, University of Pennsylvania) and LysMcre recombinase mice (originally developed by Irmgard Foerster, University of Duesseldorf) (both purchased from The Jackson Laboratory, Bar Harbor, Me.) were crossed to generate mice homozygous for both LysMcre and the floxed HIF-2α allele. LysMcre recombinase mice, which express no floxed alleles, were used as controls. Deletion of HIF-2α in HIF-2α^flox/flox/LysMcre macrophages, but not the LysMcre control macrophages, was confirmed at the transcript level by real-time PCR.
The disclosed HIF-2α stabilizer is not targeted specifically to macrophages, and will stabilize HIF-2α in all tissues, not only the tumor-associated macrophages. In order to determine the role of macrophages in the anti-tumor response to the disclosed HIF-2α stabilizer, mice with a myeloid-specific deletion of HIF-2α (HIF-2α^flox/flox/LysMcre mice) were utilized.

Structure (SMILES): O=C(O)CNC(=O)c1ncc(-c2cccc(F)c2)cc1O [disclosed HIF-2α stabilizer, {[5-(3-Fluorophenyl)-3-hydroxypyridine-2-carbonyl]amino} acetic acid]
- Mean Tumor Mass (A2780/CP tumor cells; 18 mg/kg QD PO, study day 1): 119.6 mg
- Median Tumor Mass (A2780/CP tumor cells; 18 mg/kg QD PO, study day 1): 121.3 mg
- Mean Tumor Mass (A2780/CP tumor cells; 18 mg/kg QD PO, study day 4): 188.2 mg
- Median Tumor Mass (A2780/CP tumor cells; 18 mg/kg QD PO, study day 4): 191.0 mg
- No. Surviving Animals (A2780/CP tumor cells; 18 mg/kg QD PO, study day 4): 10
- Wgt % change (A2780/CP tumor cells; 18 mg/kg QD PO, study day 4): −0.31%
- Mean Tumor Mass (A2780/CP tumor cells; 18 mg/kg QD PO, study day 8): 326.9 mg
- Median Tumor Mass (A2780/CP tumor cells; 18 mg/kg QD PO, study day 8): 243.8 mg
- No. Surviving Animals (A2780/CP tumor cells; 18 mg/kg QD PO, study day 8): 10
- Wgt % change (A2780/CP tumor cells; 18 mg/kg QD PO, study day 8): 4.40%
- Mean Tumor Mass (A2780/CP tumor cells; 18 mg/kg QD PO, study day 11): 682.8 mg
- Median Tumor Mass (A2780/CP tumor cells; 18 mg/kg QD PO, study day 11): 528.0 mg
- No. Surviving Animals (A2780/CP tumor cells; 18 mg/kg QD PO, study day 11): 10
- Wgt % change (A2780/CP tumor cells; 18 mg/kg QD PO, study day 11): 6.02%
- Mean Tumor Mass (A2780/CP tumor cells; 18 mg/kg QD PO, study day 16): 2508.0 mg
- Median Tumor Mass (A2780/CP tumor cells; 18 mg/kg QD PO, study day 16): 1826.2 mg
- No. Surviving Animals (A2780/CP tumor cells; 18 mg/kg QD PO, study day 16): 10
- Wgt % change (A2780/CP tumor cells; 18 mg/kg QD PO, study day 16): 16.40%
- Mean Tumor Mass (A2780/CP tumor cells; 18 mg/kg QD PO, study day 19): 2647.4 mg
- Median Tumor Mass (A2780/CP tumor cells; 18 mg/kg QD PO, study day 19): 3030.1 mg
- No. Surviving Animals (A2780/CP tumor cells; 18 mg/kg QD PO, study day 19): 6
- Wgt % change (A2780/CP tumor cells; 18 mg/kg QD PO, study day 19): 16.82%
- Mean Tumor Mass (A2780/CP tumor cells; 18 mg/kg QD PO, study day 22): 1761.6 mg
- Median Tumor Mass (A2780/CP tumor cells; 18 mg/kg QD PO, study day 22): 1761.6 mg
- No. Surviving Animals (A2780/CP tumor cells; 18 mg/kg QD PO, study day 22): 1
- Wgt % change (A2780/CP tumor cells; 18 mg/kg QD PO, study day 22): 19.43%
- Mean Tumor Mass (A2780/CP tumor cells; 18 mg/kg QD PO, study day 25): 2838.3 mg
- Median Tumor Mass (A2780/CP tumor cells; 18 mg/kg QD PO, study day 25): 2838.3 mg
- No. Surviving Animals (A2780/CP tumor cells; 18 mg/kg QD PO, study day 25): 1
- Wgt % change (A2780/CP tumor cells; 18 mg/kg QD PO, study day 25): 19.43%
- Mean Tumor Mass (A2780/CP tumor cells; 36 mg/kg QD PO, study day 1): 120.3 mg
- Median Tumor Mass (A2780/CP tumor cells; 36 mg/kg QD PO, study day 1): 123.3 mg
- Mean Tumor Mass (A2780/CP tumor cells; 36 mg/kg QD PO, study day 4): 186.4 mg
- Median Tumor Mass (A2780/CP tumor cells; 36 mg/kg QD PO, study day 4): 182.8 mg
- No. Surviving Animals (A2780/CP tumor cells; 36 mg/kg QD PO, study day 4): 10
- Wgt % change (A2780/CP tumor cells; 36 mg/kg QD PO, study day 4): −0.41%
- Mean Tumor Mass (A2780/CP tumor cells; 36 mg/kg QD PO, study day 8): 312.8 mg
- Median Tumor Mass (A2780/CP tumor cells; 36 mg/kg QD PO, study day 8): 323.4 mg
- No. Surviving Animals (A2780/CP tumor cells; 36 mg/kg QD PO, study day 8): 10
- Wgt % change (A2780/CP tumor cells; 36 mg/kg QD PO, study day 8): 4.04%
- Mean Tumor Mass (A2780/CP tumor cells; 36 mg/kg QD PO, study day 11): 708.1 mg
- Median Tumor Mass (A2780/CP tumor cells; 36 mg/kg QD PO, study day 11): 830.4 mg
- No. Surviving Animals (A2780/CP tumor cells; 36 mg/kg QD PO, study day 11): 10
- Wgt % change (A2780/CP tumor cells; 36 mg/kg QD PO, study day 11): 5.48%
- Mean Tumor Mass (A2780/CP tumor cells; 36 mg/kg QD PO, study day 16): 2354.5 mg
- Median Tumor Mass (A2780/CP tumor cells; 36 mg/kg QD PO, study day 16): 2441.8 mg
- No. Surviving Animals (A2780/CP tumor cells; 36 mg/kg QD PO, study day 16): 10
- Wgt % change (A2780/CP tumor cells; 36 mg/kg QD PO, study day 16): 15.86%
- Mean Tumor Mass (A2780/CP tumor cells; 36 mg/kg QD PO, study day 19): 1858.8 mg
- Median Tumor Mass (A2780/CP tumor cells; 36 mg/kg QD PO, study day 19): 1568.0 mg
- No. Surviving Animals (A2780/CP tumor cells; 36 mg/kg QD PO, study day 19): 4
- Wgt % change (A2780/CP tumor cells; 36 mg/kg QD PO, study day 19): 12.79%
- Mean Tumor Mass (A2780/CP tumor cells; 36 mg/kg QD PO, study day 22): 2456.9 mg
- Median Tumor Mass (A2780/CP tumor cells; 36 mg/kg QD PO, study day 22): 2384.6 mg
- No. Surviving Animals (A2780/CP tumor cells; 36 mg/kg QD PO, study day 22): 3
- Wgt % change (A2780/CP tumor cells; 36 mg/kg QD PO, study day 22): 8.50%
- rate of tumor mass growth (A2780/CP tumor cells; 18 and 36 mg/kg QD PO vs control group, FIGS. 7 to 9, Table I): significantly reduced
- tumor growth ([1]; LysMcre control mice): inhibited tumor growth
- tumor growth ([1]; mice with HIF-2α-deficient macrophages, magnitude much less than in control mice): reduced tumor growth
